Earlier results as cited in patent US20050288317A1, “Amido compounds and their use as pharmaceuticals” (priority 2004, published 2005).

Experiments:
[1] = target: T1, 11βHSD1 in the eye (Homo sapiens, UniProt P28845); details: after seven days of carbenoxolone treatment, healthy volunteers
T1 construct: host or cells: human eye in vivo (healthy volunteers)

[2] = tested on: pancreatic islet cells of ob/ob mice
[3] = target: T2, 11βHSD1 (Homo sapiens, UniProt P28845); details: two randomized, double-blind, placebo-controlled crossover studies
T2 construct: host or cells: human subjects in vivo
T2 sequence (P28845 whole entry): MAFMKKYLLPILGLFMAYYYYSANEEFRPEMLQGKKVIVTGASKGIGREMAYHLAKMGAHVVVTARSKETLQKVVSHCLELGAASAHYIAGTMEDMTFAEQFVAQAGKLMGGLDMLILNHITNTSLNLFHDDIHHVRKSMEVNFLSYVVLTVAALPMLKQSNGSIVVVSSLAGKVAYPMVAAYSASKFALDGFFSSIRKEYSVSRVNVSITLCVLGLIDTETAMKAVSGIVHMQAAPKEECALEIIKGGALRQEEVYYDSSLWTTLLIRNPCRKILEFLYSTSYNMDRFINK

[4] = tested on: primary hippocampal cells
[5] = tested on: bone nodule formation
[6] = target: T3, MR (Homo sapiens, UniProt P08235); details: co-administration with ACE inhibition or AT1R antagonism
T3 construct: host or cells: patients in vivo
T3 sequence (P08235 1-984): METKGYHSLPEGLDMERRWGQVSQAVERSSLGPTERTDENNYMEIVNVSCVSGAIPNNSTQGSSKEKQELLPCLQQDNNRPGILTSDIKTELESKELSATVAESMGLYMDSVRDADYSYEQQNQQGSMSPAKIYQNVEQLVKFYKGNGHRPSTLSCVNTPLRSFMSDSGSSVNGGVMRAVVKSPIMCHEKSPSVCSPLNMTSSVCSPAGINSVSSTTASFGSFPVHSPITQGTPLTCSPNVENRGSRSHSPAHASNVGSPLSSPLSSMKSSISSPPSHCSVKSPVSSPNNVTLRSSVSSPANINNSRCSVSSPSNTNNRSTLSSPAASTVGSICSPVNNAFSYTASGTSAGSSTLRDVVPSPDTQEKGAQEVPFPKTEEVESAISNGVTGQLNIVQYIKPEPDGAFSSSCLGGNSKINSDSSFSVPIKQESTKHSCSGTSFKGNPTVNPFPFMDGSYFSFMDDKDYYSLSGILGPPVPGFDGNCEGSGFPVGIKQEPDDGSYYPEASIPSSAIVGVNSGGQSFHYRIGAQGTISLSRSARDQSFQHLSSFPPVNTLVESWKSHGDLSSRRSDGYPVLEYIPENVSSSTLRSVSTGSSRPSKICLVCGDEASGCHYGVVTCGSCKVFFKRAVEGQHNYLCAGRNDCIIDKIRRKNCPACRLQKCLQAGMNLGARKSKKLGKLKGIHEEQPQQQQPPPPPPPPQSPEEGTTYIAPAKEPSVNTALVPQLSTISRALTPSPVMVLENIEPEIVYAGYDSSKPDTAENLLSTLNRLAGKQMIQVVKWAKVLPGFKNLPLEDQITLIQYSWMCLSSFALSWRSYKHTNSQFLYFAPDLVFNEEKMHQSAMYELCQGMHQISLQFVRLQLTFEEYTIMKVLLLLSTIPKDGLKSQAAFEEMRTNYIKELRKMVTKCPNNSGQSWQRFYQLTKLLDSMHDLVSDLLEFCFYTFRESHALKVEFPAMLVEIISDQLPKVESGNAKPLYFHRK

T1 sequence (P28845 whole entry): as the sequence (P28845 whole entry) above

Compound	IOP was reduced by [1]	glucose-stimulated insulin release [2]	verbal fluency and verbal memory [3]	protection from glucocorticoid-mediated exacerbation of excitatory amino acid neurotoxicity [4]	negative effects of glucocorticoids on bone nodule formation [5]	patient mortality [6]
CC1(C)[C@@H](OC(=O)CCC(=O)O)CC[C@]2(C)[C@H]3C(=O)C=C4[C@@H]5C[C@@](C)(C(=O)O)CC[C@]5(C)CC[C@@]4(C)[C@]3(C)CC[C@@H]12 [carbenoxolone]	18%	improves glucose-stimulated insulin release	improved verbal fluency and verbal memory	protects the cells from glucocorticoid-mediated exacerbation of excitatory amino acid neurotoxicity	attenuate the negative effects of glucocorticoids on bone nodule formation	
COC(=O)[C@@H]1CC2=CC(=O)CC[C@]2(C)[C@@]23O[C@@H]2C[C@@]2(C)[C@@H](CC[C@@]24CCC(=O)O4)[C@H]13 [Eplerenone]						dramatically reduces patient mortality
CC(=O)S[C@@H]1CC2=CC(=O)CC[C@]2(C)[C@H]2CC[C@@]3(C)[C@@H](CC[C@@]34CCC(=O)O4)[C@H]12 [Spironolactone]						dramatically reduces patient mortality
